Measurements from patent US5294718A, “Piperidino-3,4-dihydrocarbostyril compounds” (Kissei Pharmaceutical Co., Ltd., priority 1993, dated 1994).

Tested on: Adenosine Diphosphate (ADP)-Induced Platelet Aggregation
Assay: Inhibitory Effect on Adenosine Diphosphate (ADP)-Induced Platelet Aggregation (turbidimetric method, platelet rich plasma)
Type: cell-based, Japanese White rabbit
Settings: Oryctolagus cuniculus; rabbit platelet rich plasma; aggregation induced by 20 μM ADP; read-out: concentration at which the compound inhibited 50% of platelet aggregation (IC50)
Procedure: Platelet rich plasma (PRP) was prepared from Japanese White rabbit blood drawn from the carotid artery into a syringe containing 3.8% sodium citrate (1/10) volume, and centrifuged at 400×g for 10 min. Platelet aggregation in PRP was induced by 20 μM ADP and determined by the turbidimetric method using an aggregomater (Hema-Tracer: Niko Bioscience Co., Ltd., Japan).

| Compound | IC50 [µM] |
| --- | --- |
| N#Cc1cc2c(cc1N1CCC(O)CC1)CCC(=O)N2 [Compound 7, 7-Cyano-6-(4-hydroxypiperidino)-3,4-dihydrocarbostyril] | 18 |
| O=C1CCc2cc(N3CCC(O)CC3)c([N+](=O)[O-])cc2N1 [Compound 1, 6-(4-Hydroxypiperidino)-7-nitro-3,4-dihydrocarbostyril] | 37 |
| COC(=O)c1cc2c(cc1N1CCC(O)CC1)CCC(=O)N2 [Compound 8, 6-(4-Hydroxypiperidino)-7-methoxycarbonyl-3,4-dihydrocarbostyril] | 42 |
| O=C1CCc2cc(N3CCC(O)CC3)c(Br)cc2N1 [Compound 3, 7-Bromo-6-(4-hydroxypiperidino)-3,4-dihydrocarbostyril] | 26 |
| O=C1CCc2cc(N3CCC(O)CC3)c(Cl)cc2N1 [Compound 5, 7-Chloro-6-(4-hydroxypiperidino)-3,4-dihydrocarbostyril] | 26 |
| O=C1CCc2c(ccc(N3CCC(O)CC3)c2Br)N1 [Compound 4, 5-Bromo-6-(4-hydroxypiperidino)-3,4-dihydrocarbostyril] | 140 |
| O=C1CCc2c(ccc(N3CCC(O)CC3)c2Cl)N1 [Compound 6, 5-Chloro-6-(4-hydroxypiperidino)-3,4-dihydrocarbostyril] | 290 |
| O=C1CCc2c(ccc(N3CCC(O)CC3)c2[N+](=O)[O-])N1 [Compound 2, 6-(4-Hydroxypiperidino)-5-nitro-3,4-dihydrocarbostyril] | 55 |

Other lines, results leading:

| IC50 [µM] | Compound |
| --- | --- |
| 37 | CCC(=O)OC1CCN(c2cc3c(cc2[N+](=O)[O-])NC(=O)CC3)CC1 [Compound 11, 6-(4-Propionyloxypiperidino)-7-nitro-3,4-dihydrocabostyril] |
| 39 | O=C1CCc2cc(N3CCC(O)CC3)c(C(F)(F)F)cc2N1 [Compound 12, 6-(4-Hydroxypiperidino)-7-trifluoromethyl-3,4-dihydrocarbostyril] |
| 51 | O=C1CCc2cc(N3CCC(O)CC3)c(F)cc2N1 [Compound 10, 7-Fluoro-6-(4-hydroxypiperidino)-3,4-dihydrocarbostyril] |
| 130 | Cc1cc2c(cc1N1CCC(O)CC1)CCC(=O)N2 [Compound 9, 6-(4-Hydroxypiperidino)-7-methyl-3,4-dihydrocarbostyril] |
